“And” between values parts separate entries of the source, which are not always exact repeats. Equal values may be shown once.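 Growth conditions: 96-well plates. Treatment: test compound, 48 hours, 5 concentrations. Analysis: linear interpolation between bracketing concentrations; unreached endpoints set to highest concentration. Abbreviation: GI50, concentration required for 50% inhibition of growth. TGI: total growth inhibition.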
Key:
Assay in all cases: DTP human tumour cell line panel, 48 h
[1] = tested on: KM12 colon
[2] = tested on: SK-OV-3 ovarian
[3] = tested on: HOP-62 NSCLC
[4] = tested on: HS 578T breast
[5] = tested on: COLO 205 colon
[6] = tested on: ACHN renal
[7] = tested on: HOP-92 NSCLC
[8] = tested on: HL-60(TB) leukemia
[9] = tested on: RPMI-8226 leukemia
[10] = tested on: HCC-2998 colon

CN=C(N)c1ccc(N=C(N)c2ccc(-c3ccc(C(N)=Nc4ccc(C(N)=NC)cc4)cc3)cc2)cc1
GI50 [1]: 61.9 µM
TGI [1]: > 100 µM
GI50 [2]: > 100 µM
TGI [2]: > 100 µM
GI50 [3]: > 100 µM
TGI [3]: > 100 µM
GI50 [4]: > 100 µM
TGI [4]: > 100 µM
GI50 [5]: 99.5 µM
TGI [5]: > 100 µM
GI50 [6]: > 100 µM
TGI [6]: > 100 µM
GI50 [7]: 84.5 µM
TGI [7]: > 100 µM
GI50 [8]: 58.3 µM
TGI [8]: > 100 µM
GI50 [9]: 46.5 µM
TGI [9]: > 100 µM
GI50 [10]: > 100 µM
TGI [10]: > 100 µM

COc1cc2cc(Oc3ccc(NC(=O)Nc4cc(C(F)(F)F)cc(C(F)(F)F)c4)cc3)c(C)nc2cc1OCCN1CCOCC1
GI50 [1]: 1.53 µM
TGI [1]: 5.95 µM
GI50 [2]: 2.09 µM
TGI [2]: 8.5 µM
GI50 [3]: 2.2 µM
TGI [3]: 9.16 µM
GI50 [4]: 1.56 µM
TGI [4]: 7 µM
GI50 [5]: 1.02 µM
TGI [5]: 2.18 µM
GI50 [6]: 1.53 µM
TGI [6]: 5.42 µM
GI50 [7]: 0.9 µM
TGI [7]: 2.71 µM
GI50 [8]: 1.62 µM
TGI [8]: 4.93 µM
GI50 [9]: 0.84 µM
TGI [9]: 2.12 µM
GI50 [10]: 2.09 µM
TGI [10]: 6.97 µM

O=C1NC(=NCCc2ccc(F)cc2)S/C1=C\c1ccc2ncccc2c1
GI50 [1]: > 25 µM
TGI [1]: > 25 µM
GI50 [2]: > 25 µM
TGI [2]: > 25 µM
GI50 [3]: > 25 µM
TGI [3]: > 25 µM
GI50 [4]: > 25 µM
TGI [4]: > 25 µM
GI50 [5]: > 25 µM
TGI [5]: > 25 µM
GI50 [6]: > 25 µM
TGI [6]: > 25 µM
GI50 [7]: > 25 µM
TGI [7]: > 25 µM
GI50 [8]: > 25 µM
TGI [8]: > 25 µM
GI50 [9]: > 25 µM
TGI [9]: > 25 µM
GI50 [10]: > 25 µM
TGI [10]: > 25 µM

O=C(CS(=O)(=O)c1nc2ccccc2nc1-c1ccccc1)Nc1ccc(F)cc1
GI50 [1]: 31 µM
TGI [1]: 97.7 µM
GI50 [2]: > 100 µM
TGI [2]: > 100 µM
GI50 [3]: > 100 µM
TGI [3]: > 100 µM
GI50 [4]: 29.7 µM
TGI [4]: 94.3 µM
GI50 [5]: 65.1 µM
TGI [5]: > 100 µM
GI50 [6]: > 100 µM
TGI [6]: > 100 µM
GI50 [7]: 22.3 µM
TGI [7]: > 100 µM
GI50 [8]: 1.8 µM
TGI [8]: 10.3 µM
GI50 [9]: 29.1 µM
TGI [9]: > 100 µM
GI50 [10]: 13.3 µM
TGI [10]: 26.9 µM

CCCn1c2c(c3ccccc3c1=O)C(=O)c1ccccc1-2
TGI [1]: > 100 µM
TGI [2]: > 100 µM
TGI [3]: > 79.6 µM
TGI [4]: > 100 µM
TGI [5]: > 100 µM
TGI [6]: > 100 µM
TGI [7]: > 100 µM
TGI [8]: 7.25 µM
TGI [9]: > 100 µM
TGI [10]: > 100 µM

O=C(Nc1ccc(Oc2ccc(F)cc2)cc1)[C@@H]1C[C@@H](Cc2ccc(F)cc2)CN1C(=O)Cn1ccnn1
GI50 [1]: 9.43 µM
TGI [1]: 24.1 µM
GI50 [2]: 19.5 µM
TGI [2]: > 75.7 µM
GI50 [3]: 12.3 µM
TGI [3]: 31.5 µM
GI50 [4]: 11.5 µM
TGI [4]: 51.9 µM
GI50 [5]: 5.21 µM
TGI [5]: 16.8 µM
GI50 [6]: 4.93 µM
TGI [6]: 25.2 µM
GI50 [7]: 7.54 µM
TGI [7]: 31.3 µM
GI50 [8]: 3.7 µM
TGI [8]: 17.8 µM
GI50 [9]: 3.74 µM
TGI [9]: 26.4 µM
GI50 [10]: 7.17 µM
TGI [10]: 21.8 µM

O=C1CC(c2c[nH]c3ccc(F)cc23)C(=O)N1 (configuration not stated)
GI50 [1]: > 100 µM
TGI [1]: > 100 µM
GI50 [2]: > 100 µM
TGI [2]: > 100 µM
GI50 [3]: > 100 µM
TGI [3]: > 100 µM
GI50 [4]: > 100 µM
TGI [4]: > 100 µM
GI50 [5]: > 100 µM
TGI [5]: > 100 µM
GI50 [6]: > 100 µM
TGI [6]: > 100 µM
GI50 [7]: > 100 µM
TGI [7]: > 100 µM
GI50 [8]: > 100 µM
TGI [8]: > 100 µM
GI50 [9]: > 100 µM
TGI [9]: > 100 µM
GI50 [10]: > 100 µM
TGI [10]: > 100 µM

CC(=O)OCC1OC(n2c(=S)n(-c3ccc([N+](=O)[O-])cc3)c(=O)c3ccccc32)C(OC(C)=O)C(OC(C)=O)C1OC(C)=O (configuration not stated)
GI50 [1]: 25.5 µM and 17.4 µM
TGI [1]: > 75.4 µM and 46.9 µM
TGI [2]: 60.1 µM and 50.1 µM
TGI [3]: 53.7 µM and 54.7 µM
TGI [4]: 68.5 µM
GI50 [5]: 31.2 µM
TGI [5]: > 100 µM
GI50 [6]: 20.3 µM and 29.7 µM
TGI [6]: 97.9 µM and > 100 µM
GI50 [7]: 21.9 µM
TGI [7]: > 91.6 µM and 47.4 µM
GI50 [8]: 4.13 µM and 25.2 µM
TGI [8]: 29.4 µM and 59.1 µM
GI50 [9]: 4.41 µM and 19.9 µM
TGI [9]: 17.8 µM and > 100 µM
GI50 [10]: 26.8 µM and 20.8 µM
TGI [10]: 61.4 µM and 46.6 µM

CC(=O)Nc1ccc(C(=O)CCl)cc1
GI50 [1]: 12.2 µM
TGI [1]: 25.7 µM
GI50 [2]: 15.1 µM
TGI [2]: 28.3 µM
GI50 [3]: 15 µM
TGI [3]: 32.1 µM
GI50 [4]: 17.7 µM
TGI [4]: 80.5 µM
GI50 [5]: 1.97 µM
TGI [5]: 3.93 µM
GI50 [6]: 1.8 µM
TGI [6]: 3.29 µM
GI50 [7]: 2.12 µM
TGI [7]: 4.95 µM
GI50 [8]: 2.4 µM
TGI [8]: 5.86 µM
GI50 [9]: 2.95 µM
TGI [9]: 10 µM
GI50 [10]: 7.48 µM
TGI [10]: 20.7 µM
